BindingDB's records for doi:10.1021/jm801322h (Pfizer, 2009)

Target: T1, Gag-Pol polyprotein [588-1027] (Human immunodeficiency virus type 1 group M subtype B (isolate HXB2), UniProt P04585)
T1 construct: 588-1027
Test: Reverse Transcriptase Assay
Details: pH 7.8; 37 °C
Protocol: The inhibition of the RNA-dependent DNA polymerase activity of the HIV-1 reverse transcriptase enzyme was measured using a primer extension assay. The substrate-incorporated radioactivity was measured using the Topcount NXT with a reading time of 1 minute/well and IC50 were deduced from the dose response curves obtained.

CNCc1n[nH]c2cccc(Oc3cc(C#N)cc(C#N)c3)c12 [5-({3-[(methylamino)methyl]-1H-indazol-4-yl}oxy)benzene-1,3-dicarbonitrile]
IC50: > 30 µM
